Data taken from patent publication EP1954678B1, “NOVEL NK1 AND NK2 ANTAGONISTS” (Abbott Products GmbH, priority 2005, dated 2007).
Like-named read-outs stand apart in the source and are kept apart here.

What was measured:
[1] = target: T1, NK2 receptors (Cavia porcellus, UniProt Q64077); test: Functional NK2 antagonism on isolated guinea pig gall-bladder preparations (NKA induced contraction); parameters: from tissue; host or cells: guinea pig gall-bladder preparations; species or system Pirbright-White guinea pigs
T1 sequence (Q64077 1-402): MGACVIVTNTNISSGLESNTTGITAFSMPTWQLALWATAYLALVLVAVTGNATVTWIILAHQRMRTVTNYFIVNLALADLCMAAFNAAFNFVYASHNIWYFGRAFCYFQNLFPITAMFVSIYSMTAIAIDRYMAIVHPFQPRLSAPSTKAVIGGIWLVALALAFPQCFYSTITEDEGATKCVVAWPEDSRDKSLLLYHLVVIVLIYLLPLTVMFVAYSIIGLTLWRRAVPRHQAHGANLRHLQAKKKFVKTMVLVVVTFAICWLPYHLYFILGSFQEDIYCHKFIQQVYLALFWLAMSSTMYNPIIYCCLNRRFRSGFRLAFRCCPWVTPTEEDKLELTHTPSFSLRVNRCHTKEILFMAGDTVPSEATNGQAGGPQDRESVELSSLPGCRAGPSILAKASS
Experimental: The NK2 receptor-antagonising action of the test substances was determined on isolated gall-bladder preparations from Pirbright-White guinea pigs, held in an oxygen-saturated nutrient solution. To this end, the preparations were fastened on one hand in the nutrient solution to organ holders and on the other hand on a force meter by a thread.
The concentration of the test substances was increased iteratively in the subsequent experiments as a function of the result in logarithmic whole or half steps, until at least one concentration above or below 50% inhibition of contraction was determined (up to at most 10^-5 mol/l). For each concentration, the average value of inhibition of contraction was calculated from 2 to 4 preparations. In each case, the concentration of half-maximum inhibition (IC50) per test substance was calculated as characteristic variable.

[2] = target: T2, NK1 receptors (Cavia porcellus, UniProt P30547); test: Functional NK1 antagonism on isolated guinea pig aorta ring preparations (Substance P induced relaxation); parameters: from tissue; host or cells: guinea pig aorta ring preparations; species or system Pirbright-White guinea pigs
Experimental: In The Netherlands, the action antagonistic to NK1 receptors of the test substances was measured in vitro on isolated ring preparations, kept in an oxygenated nutrient solution, of the aortas of Pirbright-White guinea pigs.
In order to measure the contraction of the vessel muscles, the preparations were fixed to a hook, joined by a thread to a force measuring apparatus and the contractions were recorded in each case on a plotter. The aorta preparations were tonicised with phenylephrine. […] The relaxations before and after the administration of the test substance were quantified in percent. The effective concentration of the half maximum inhibition of the relaxation of the tone (= EC50) was calculated. The negative common logarithm of the EC50 value (= pEC50) was given as characteristic variable. The pEC50 value is a measurement of the functional effectiveness of the test substances on NK1 receptors.

[3] = target: T3, human NK1 receptors (Homo sapiens, UniProt P25103); test: Binding of the test substances to NK1 receptors in vitro ([3H]-Substance P displacement, CHO cell membranes); details: [3H]-Substance P as ligand; membranes of CHO cells expressing the human NK1 receptor; Ki calculated from IC50; read-out: pKi (NK1) (converted)
T3 construct: expressed in transfected cells; host or cells: CHO cells (membrane preparation)
Experimental: In The Netherlands, the affinity of the test substances to human NK1 receptors was measured in vitro.
The receptor binding studies were performed with [^3H]-Substance P as ligand. For the binding test, different samples of a membrane preparation of CHO cells (= egg cells of the Chinese hamster, Chinese hamster oocytes), which express the human NK1 receptor ("Accession Number" of the associated nucleic acid sequence = M74290; "Accession Number" of the associated protein sequence = P25103; cf. Takeda, Y.; Chou, K. B., Takeda, J.; Sachais, B.S. and Krause, J. E; Biochemical and Biophysical Research Communications, 179(3) (1991) 1232 - 1240), were incubated with a solution of the marked ligand, with the incubation mixtures containing no test substance or additions of different concentrations of test substance. Then, separation of bound and free ligands was performed in each of the samples with the aid of glass-fibre filtration. The fraction remaining in the filter was washed several times with buffer solution and then the radioactivity of the fraction remaining in the filter was measured using a beta scintillation counter.
For the compounds of Examples 1 to 14, that concentration which effects half maximum displacement of the bound ligand was determined as IC50 of the respective test substance. From this, the corresponding inhibition constant (Ki value) of the test substance was calculated, and was stated as the negative common logarithm of the Ki value (= pKi value). The pKi value is a measurement of the affinity of the test substances to human NK1 receptors.

[4] = target: T4, human NK2 receptors (Homo sapiens, UniProt P21452); test: Binding of the test substances to NK2 receptors in vitro ([3H]-SR 48968 displacement, CHO cell membranes); details: [3H]-SR 48968 as ligand; membranes of CHO cells expressing the human NK2 receptor; 90 min incubation; Ki calculated from IC50; read-out: pKi (NK2) (converted)
T4 construct: expressed in transfected cells; host or cells: CHO cells (membrane preparation)
T4 sequence (P21452 1-398): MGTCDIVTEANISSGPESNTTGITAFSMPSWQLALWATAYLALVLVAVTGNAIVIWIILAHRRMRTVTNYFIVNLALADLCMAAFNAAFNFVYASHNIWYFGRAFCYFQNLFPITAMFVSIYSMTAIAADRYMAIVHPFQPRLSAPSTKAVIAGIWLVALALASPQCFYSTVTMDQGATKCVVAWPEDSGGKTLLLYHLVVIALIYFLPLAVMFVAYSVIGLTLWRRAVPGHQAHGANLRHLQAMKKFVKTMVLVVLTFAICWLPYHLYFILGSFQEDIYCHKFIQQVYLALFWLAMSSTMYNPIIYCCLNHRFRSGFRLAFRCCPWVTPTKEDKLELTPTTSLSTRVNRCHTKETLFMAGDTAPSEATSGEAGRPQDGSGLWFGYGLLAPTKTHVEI
Experimental: The affinity of the test substances to human NK2 receptors was measured in vitro. The ability of the test substances to displace the selective NK2 receptor antagonist SR 48968 (= saredutant) used as reference ligand from its corresponding bond was determined.
The receptor binding studies were carried out with radioactively marked [^3H]-SR 48968 (from Amersham) as ligand. For the binding test, different samples of a membrane preparation of CHO cells (= egg cells of the Chinese hamster, Chinese hamster oocytes), which express the human NK2 receptor (for preparation, see N.P. Gerard et al., Journal of Biological Chemistry 265/33 (1990) 20455-20462), were incubated for 90 minutes (= min.) with a solution of the marked ligand, with the incubation mixtures containing no test substance or additions of different concentrations of test substance. Then in each case the membrane-bound ligands in the samples were separated from free ligands by filtration. The fraction remaining in the filter was washed several times with buffer solution, before its radioactivity was measured using a liquid scintillation counter. That concentration which effects half-maximum displacement of the bound reference ligand was determined as IC50 of the respective test substance. The inhibition constant (Ki value) of the test substance was calculated from the respective IC50 value, and was stated as the negative logarithmised value thereof (pKi).
If several measurements were performed, the average thereof was listed each time. The pKi value is a measurement of the affinity of the test substances to human NK2 receptors.

[5] = target: T5, cloned human NK1 receptors (Homo sapiens, UniProt P25103); test: Ca2+ measurements using FLIPR for NK1 activity in CHO cells; assay type: cell-based; details: substance P 10^-8 M as agonist; compound applied 7 min before; pA2 calculated from IC50
T5 construct: expressed in transfected cells
From the text: (§1) The NK receptor is coupled to Gq.
(§2) All steps were done under sterile conditions. […] The results are summarized in table 5: Table 5: pA2 data for NK1 and NK2: […]

[6] = target: T2, NK1 receptors; test: NK-1-receptor-antagonistic effectiveness in vivo in anaesthetised guinea pigs (NKA test stimulus, early hypotension); parameters: from tissue; host or cells: whole anaesthetised guinea pig (in vivo); species or system Pirbright-White guinea pigs; details: guinea pig, iv, read-out: ED50 iv after 1 min (cumulative) NK1 (early hypotension)
From the text: (§3) The NK-1- and NK-2-antagonistic activities of the test substances were investigated in anaesthetised guinea pigs in each case after intravenous (= i.v.) and oral (= p.o.) administration in vivo. With the present test model it is possible to detect both NK-2-antagonistic effects in three different organ systems (respiratory tracts, colon and circulation) and NK-1-antagonistic effects (rapid drop in blood pressure) in an animal simultaneously.
(§4) Pirbright-White guinea pigs of a body weight of 500-700 g were anaesthetised with ketamine/xylazine (67/13 mg/kg subcutaneously, initial dose, further doses administered as required). The animals were provided with an intravenous catheter in order to administer the substance and an intra-arterial catheter to measure the blood pressure. The animals were artificially ventilated via a tracheal cannula and the respiratory pressure was recorded by means of a pressure transducer. A balloon was introduced into the distal colon of the animals for manometric recording of colon motility by means of a pressure transducer. Blood pressure, heart rate, respiratory pressure and colonic pressure were measured continuously for each animal and plotted on a recorder and by means of a digital data-processing system. […] The second phase of delayed hypotension (= phase of maximum hypotension after 2-5 min.) on the other hand is mediated via NK-2 receptors, since they can be blocked by specific NK-2 receptor antagonists. […] Table 6: NK-1- and NK-2-receptor-antagonistic effective-ness of the test substances of Formula I on guinea pigs in vivo after intravenous administration
(§5) These ED50 values obtained from cumulative dose effect curves are plotted in table 6.
(§6) The antagonistic effects of the test substances were then determined as "area under the curve" ("AUC") over the investigation period after administration of the test substances (1 - 180 min after administration) and the ED50 values after oral administration obtained therefrom were plotted in table 7. Table 7: NK-1- and NK-2-receptor-antagonistic effective-ness of the test substances of Formula I on guinea pigs in vivo after oral administration

[7] = target: T1, NK2 receptors; test: NK-2-receptor-antagonistic effectiveness in vivo in anaesthetised guinea pigs (NKA test stimulus: late hypotension, bronchoconstriction, colonic pressure); parameters: from tissue; host or cells: whole anaesthetised guinea pig (in vivo); species or system Pirbright-White guinea pigs; details: guinea pig, iv
From the text: as §3, §4, §5, §6

[8] = target: T6, cloned human NK2 receptors (Homo sapiens, UniProt P21452); test: Ca2+ measurements using FLIPR for NK2 activity in CHO cells; assay type: cell-based; details: NKA 10^-7 M as agonist; compound applied 7 min before; pA2 calculated from IC50
T6 construct: expressed in transfected cells
T6 sequence (P21452 1-398): T4 sequence (P21452 1-398)
From the text: as §1, §2

[9] = read-out: ED50 iv after 1 min (cumulative) NK2 (broncho-constriction)
[10] = read-out: ED50 iv after 1 min (cumulative) NK2 (colonic motility)
[11] = read-out: ED50 iv after 1 min (cumulative) NK2 (late hypotension)

T3 sequence (P25103 whole entry): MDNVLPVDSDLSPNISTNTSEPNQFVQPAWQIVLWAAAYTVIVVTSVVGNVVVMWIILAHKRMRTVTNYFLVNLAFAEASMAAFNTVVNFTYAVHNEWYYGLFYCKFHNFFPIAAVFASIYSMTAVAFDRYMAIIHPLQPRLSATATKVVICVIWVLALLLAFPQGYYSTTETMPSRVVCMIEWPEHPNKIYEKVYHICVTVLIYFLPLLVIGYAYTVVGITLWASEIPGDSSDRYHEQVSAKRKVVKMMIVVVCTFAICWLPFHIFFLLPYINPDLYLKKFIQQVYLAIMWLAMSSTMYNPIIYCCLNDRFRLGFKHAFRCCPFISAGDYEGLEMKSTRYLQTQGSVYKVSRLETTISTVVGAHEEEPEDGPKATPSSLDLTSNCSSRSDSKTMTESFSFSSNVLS
T2 sequence (P30547 whole entry): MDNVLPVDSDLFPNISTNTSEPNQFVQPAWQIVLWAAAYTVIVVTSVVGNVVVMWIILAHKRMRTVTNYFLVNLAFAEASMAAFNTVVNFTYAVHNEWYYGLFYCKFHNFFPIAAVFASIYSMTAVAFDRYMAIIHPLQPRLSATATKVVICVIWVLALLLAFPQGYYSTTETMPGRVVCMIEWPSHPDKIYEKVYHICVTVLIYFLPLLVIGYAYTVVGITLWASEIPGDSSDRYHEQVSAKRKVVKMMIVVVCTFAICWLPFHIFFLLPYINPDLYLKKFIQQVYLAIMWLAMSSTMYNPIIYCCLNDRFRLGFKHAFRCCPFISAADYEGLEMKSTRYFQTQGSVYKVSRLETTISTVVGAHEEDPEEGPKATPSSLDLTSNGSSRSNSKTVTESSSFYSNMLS
T5 sequence (P25103 whole entry): as the sequence (P25103 whole entry) above

Row | Structure (SMILES) | IC50 [1] | EC50 [2] | Ki [3] | Ki [4] | Kb [5] | ED50 [6] | ED50 [7, 9] | ED50 [7, 10] | ED50 [7, 11] | Kb [8]
1 | CN(C[C@@H](CCN1CCN([C@@H](c2ccsc2)[C@H](O)[C@@H](O)[C@H](O)CO)CC1)c1ccc(Cl)c(Cl)c1)C(=O)c1cc(C#N)cc2ccccc12 [Compound 5, 3-cyano-N-[(2S)-2-(3,4-dichlorophenyl)-4-{4-[(1S,2S,3R,4R)-2,3,4,5-tetrahydroxy-1-(3-thienyl)pentyl]piperazin-1-yl}butyl]-N-methyl-1-naphthamide] | 31.6 nM | 0.1 nM | 1.26 nM | 50.1 nM | – | – | – | – | – | –
2 | CN(C[C@@H](CCN1CCN([C@@H](c2ccsc2)[C@H](O)CO)CC1)c1ccc(Cl)c(Cl)c1)C(=O)c1cc(C#N)cc2ccccc12 [Compound 8, 3-cyano-N-[(2S)-2-(3,4-dichlorophenyl)-4-{4-[(1S,2S)-2,3-dihydroxy-1-(3-thienyl)propyl]piperazin-1-yl}butyl]-N-methyl-1-naphthamide] | – | – | 7.94 nM | 31.6 nM | 0.631 nM | 0.07 µmol/kg | 1.13 µmol/kg | 0.135 µmol/kg | 0.803 µmol/kg | 1.26 nM
3 | CN(C[C@@H](CCN1CCN([C@@H](c2cccs2)[C@H](O)CO)CC1)c1ccc(Cl)c(Cl)c1)C(=O)c1cc(C#N)cc2ccccc12 [Compound 9, 3-cyano-N-[(2S)-2-(3,4-dichlorophenyl)-4-{4-[(1R,2S)-2,3-dihydroxy-1-(2-thienyl)propyl]piperazin-1-yl}butyl]-N-methyl-1-naphthamide] | – | – | 10 nM | 63.1 nM | 3.16 nM | 0.099 µmol/kg | 0.943 µmol/kg | 0.287 µmol/kg | 1.04 µmol/kg | –
4 | CN(C[C@@H](CCN1CCN([C@@H](c2ccsc2)[C@H]2COC(=O)O2)CC1)c1ccc(Cl)c(Cl)c1)C(=O)c1cc(C#N)cc2ccccc12 [Compound 10, 3-cyano-N-[(2S)-2-(3,4-dichlorophenyl)-4-{4-[(S)-[(4S)-2-oxo-1,3-dioxolan-4-yl](3-thienyl)methyl]piperazin-1-yl}butyl]-N-methyl-1-naphthamide] | – | – | 10 nM | 100 nM | – | 0.041 µmol/kg | 0.045 µmol/kg | 0.109 µmol/kg | 0.04 µmol/kg | –
5 | CN(C[C@@H](CCN1CCN([C@@H](c2ccccc2)[C@H](O)CO)CC1)c1ccc(Cl)c(Cl)c1)C(=O)c1cc(C#N)cc2ccccc12 [Compound 23, 3-cyano-N-[(2S)-2-(3,4-dichlorophenyl)-4-{4-[(1S,2S)-2,3-dihydroxy-1-phenylpropyl]piperazin-1-yl)butyl]-N-methyl-1-naphthamide] | – | – | – | – | – | 0.029 µmol/kg | 0.725 µmol/kg | 0.961 µmol/kg | 1.17 µmol/kg | –
